Results published in PMC9818021, “Targets, Mechanisms and Cytotoxicity of Half-Sandwich Ir(III) Complexes Are Modulated by Structural Modifications on the Benzazole Ancillary Ligand” (Cancers, 2022).

Columns and labels:
Calf thymus DNA [1] = test: DNA melting temperature (DSC); assay type: binding; details: as a function of CD/CP, overnight incubation
Description: Differential scanning calorimetry (DSC) studies were performed in a nano DSC (TA Instruments, Newcastle, USA) to determine the melting temperature of DNA in the absence and in the presence of different amount of the Ir(III) complexes. Cells were 300 μL platinum capillary tubes. Measurements were performed by heating the dye/polynucleotide system from 20 to 90 °C, at 1 °C/min scan rate and 3 atm pressure. To reduce the formation of bubbles upon heating to a minimum, the reference and the sample solutions were previously degassed for 30 min in a degassing station (TA Instruments, Newcastle, USA). The thermograms recorded were analysed with the NanoAnalyze 2.0 software. The buffer–buffer baseline was run at least five heating/cooling cycles until the heating was reproducible, and then, it was subtracted from the sample data.

[2] = test system: A2780 (epithelial ovarian carcinoma cells); test: MTT cytotoxicity assay; assay type: cell-based, human; details: A2780, 48 h
Description: Cell culture. Epithelial ovarian carcinoma cells (A2780) that acquired resistance to cisplatin epithelial ovarian carcinoma cells (A2780cis), colon adenocarcinoma cells (SW480) and epithelial lung adenocarcinoma cells (A549) were provided by Sigma Aldrich. A549 and SW480 cells were grown in Dulbecco′s Modified Eagle′s Medium (DMEM), supplemented with 10% Fetal Bovine Serum (FBS) and 1% penicillin, streptomycin and 1% glutamine for A549 and 1% amphotericin B for SW480. The A2780 and A2780cis were grown in RPMI 1640 supplemented with 10% Fetal Bovine Serum (FBS), 1% glutamine and 1% penicillin, streptomycin and amphotericin B. All cells were incubated in a humidified incubator at 37 °C under a 5% CO2 atmosphere and grown in 100 mm culture dishes to approximately 70–80% confluence. For subculturing, cells were detached with Trypsin-EDTA (Sigma). A549-gal were derived from A549 cultured in glucose-free medium supplemented with 10 mM galactose (Sigma) for at least 10 passes.
Cytotoxicity. MTT Assay and IC50 estimation. The cytotoxicity of 1[C,NH-Cl], 2[C,NMe-Cl], 3[N,NH-Cl]Cl, 4[N,NMe-Cl]Cl, 5[CNH2,NH-Cl]Cl, 6[CNH2,S-Cl]Cl, 7[CO,NH-Cl] and 8[CO,S-Cl] in A2780, A2780cis, SW480 and A549 carcinoma cells was evaluated by the MTT colorimetric assay. Cells were seeded in 96-well plates at 5000 cells per well and incubated at 37 °C, 5% CO2. After 24 h, the medium was removed and replaced with fresh medium with different concentrations of the compounds under study, and they were incubated for 48 h. Final DMSO concentration was kept below 0.7% in wells. For a negative control, one sequence of cells was left untreated and for vehicle control, cells treated with DMSO were included. For cell viability experiments preincubating with NAC (N-Acetyl-L-Cysteine), the cells were pre-treated with NAC, 10 mM for 2 h before the incubation with complex 1[C,NH-Cl] for 24 h. Then, the medium was removed from the wells, and 100 µL MTT (5 mg/mL) was added. After an incubation time of 4 h, 100 μL of solubilizing detergent solution (SDS, 10% in HCL 0.01 M) was added and kept in the incubator overnight. Cell growth inhibition was detected by measuring the absorbance of each well at 595 nm using a BioTek Cytation5 microplate reader. Each test was repeated in quadruplicate in three independent experiments for each cell line. The percentage of survival cells was calculated using absorbance measurements compared with control and the IC50 estimation using Graph Pad Prism version 6.01.

Calf thymus DNA [3] = test: Kinetics of covalent binding to DNA (UV-vis, NMR); details: for Covalent binding to DNA: UV-Vis and NMR; for kc x 103 (rate constant of covalent binding to DNA): values are kc x 103, CP/CD = 20
Description: Materials. The iridium chloride salt (IrCl3·nH2O) was purchased from Johnson Mattey. The ligands 2-phenylbenzimidazole, 2-(2′-pyridylbenzimidazole), 2-(2′-aminophenylbenzimidazole), 2-(2′-aminophenylbenzothiazole), 2-(2′-hydroxyphenylbenzimidazole) and 2-(2′-hydroxyphenylbenzothiazole) were purchased from Sigma-Aldrich. The ligands 2-phenyl-N-methyl-benzimidazole and 2-(2′-pyridyl)l-N-methyl-benzimidazole were prepared according to slightly modified reported protocols. Deuterated solvents were obtained from SDS and Euriso-top. Unless otherwise specified, all the biological reagents were purchased from Merck Life Science S.L.U., Madrid, Spain. Calf thymus DNA provided as a highly polymerized lyophilized sodium salt was dissolved into doubly-deionized water and sonicated with an MSE-Sonyprep sonicator to reduce the polymer length at approximately 1000 base-pairs. The molar DNA concentration in base pairs, ε (260 nm) = 13,200 M^−1 cm^−1 [49], will be expressed as CP. BSA was supplied as crystallized and lyophilized powder (≥98%, agarose gel electrophoresis and ≤0.005% fatty acids); the BSA concentration of the stock solutions was spectrophotometrically determined as ε (278 nm) = 45,000 M^−1 cm^−1. All aqueous solutions were prepared with MilliQ-grade water using a Direct-Q8UV system from Millipore (Millipore Ibérica S.A., Madrid, Spain). All solvents were of analytical grade. The chemical studies were carried out in aqueous solutions at 25 °C, I = 2.5 mM sodium cacodylate (NaCaC) and pH between 6.0 and 7.1 unless other conditions are stated. All buffers with the biological components were of biological grade and used as received.
The UV-vis measurements were performed with a Hewlett-Packard 8453A (Agilent Technologies, Palo Alto, CA, USA) photodiode array spectrophotometer with a Peltier temperature control system. Titrations were carried out at 25 °C by adding increasing amounts of DNA solution to the iridium complex solution. The pKa values were measured by analysing the absorbance change of iridium complex solutions recorded at different pH values. The melting experiments were carried out using a DNA solution varying the CIr-complex/CDNA (CD/CP) ratio from 0 to 1, keeping CP constant and recording the absorbance spectra while heating from 25 to 90 °C at 0.3 °C/min.
The slow kinetic measurements were performed with the previous spectrophotometer while the fast kinetic measurements were performed in a stopped flow Bio-Logic SFM-300 spectrophotometer with an absorbance detection system and dead time below 3 ms. The kinetic curves, obtained averaging out at least five shots, were analysed with the Jandel (AISN software, Mapleton, OR) fitting package.
2 - Interaction wit h DNA
Aquo- complexes bind DNA(N7) more easily than their chlorido analogous[1],[2].
complexes were incubated overnight until the aquation process i s co m ple t ed. Water-insoluble
compounds were firstly dissolved in DMSO and then diluted in water.
From the fitting of absorbance-time graphs (Figure S8 ) to a biexponential analysis, two rate
constants were obtained. The fast reaction could be related to covalent binding, being k c t he
to DNA/Ir-complex rearrangements, so it was disregarded.
0. 174 3 [ N, NH] 4 [ N, NMe ]
Figure S13. Biexponential kinetic curves of DNA with A) 3[N,NH] CD = 1.0 3×1 0-5 M, B) 4[N,NMe] CD =
M, F) 8[CO,S] C D = 9.4 0×1 0- 6 M. CP/CD = 20.
Table S10. Rate constants for the covalent binding between the complexes and DNA.
The formation of covalent DNA/Ir-complex product (PD), can be represented according to the
where P represents the polynucleotide DNA and D the Iridium -metal complexes. Henceforth, CD
and CP stand for the analytical D and P concentrations, respectively.
Nevertheless, we observed that for each complex, the kc values remained essentially constant
with the increment of CP (Figure S9 ), proving that the reaction is monomolecular. Therefore, PD […]

Row | Compound | ∆Tm of DNA (Calf thymus DNA [1]) | IC50 [2] [µM] | Covalent binding to DNA (Calf thymus DNA [3]) | kc x 103 (rate constant of covalent binding to DNA) (Calf thymus DNA [3]) [s-1]
1 | Cc1c(C)c(C)[c-](C)c1C.[Cl][Ir]1[c]2ccccc2-c2[nH]c3ccccc3[n+]21 [1[C,NH], [(η^5-Cp*)IrCl(κ^2-N,C-pbim)]] | 0 oC | 5 ± 2 | ruled out | 
2 | Cc1c(C)c(C)[c-](C)c1C.Cn1c2[n+](c3ccccc31)[Ir]([Cl])[c]1ccccc1-2 [2[C,NMe], [(η^5-Cp*)IrCl(κ^2-N,C-NMepbim)]] | 0 oC | 9 ± 1 | ruled out | 
3 | Cc1c(C)c(C)[c-](C)c1C.[Cl-].[Cl][Ir]1[n+]2ccccc2-c2[nH]c3ccccc3[n+]21 [3[N,NH], [(η^5-Cp*)IrCl(κ^2-N,N-pybim)]Cl] | -35 oC | 84 ± 1 | able to covalently bind DNA | 20 ± 2
4 | Cc1c(C)c(C)[c-](C)c1C.Cn1c2[n+](c3ccccc31)[Ir]([Cl])[n+]1ccccc1-2.[Cl-] [4[N,NMe], [(η^5-Cp*)IrCl(κ^2-N,N-pyMebim)]Cl] | -14 oC | > 100 | able to covalently bind DNA | 16 ± 1
5 | Cc1c(C)c(C)[c-](C)c1C.[Cl-].[Cl][Ir]1[NH2+]c2ccccc2-c2[nH]c3ccccc3[n+]21 [5[CNH2,NH], [(η^5-Cp*)IrCl(κ^2-N,N-apbim)]Cl] | +5 oC | 17 ± 1 | able to covalently bind DNA | 3.9 ± 0.1
6 | Cc1c(C)c(C)[c-](C)c1C.[Cl-].[Cl][Ir]1[NH2+]c2ccccc2-c2sc3ccccc3[n+]21 [6[CNH2,S], [(η^5-Cp*)IrCl(κ^2-N,N-apbtz)]Cl] | +21 oC | > 100 | able to covalently bind DNA | 6.4 ± 0.2
7 | Cc1c(C)c(C)[c-](C)c1C.[Cl][Ir]1[O]c2ccccc2-c2[nH]c3ccccc3[n+]21 [7[CO,NH], [(η^5-Cp*)IrCl(κ^2-O,N-hpbim)]] | 0 oC | 14 ± 1 | able to covalently bind DNA | 3.7 ± 0.1
8 | Cc1c(C)c(C)[c-](C)c1C.[Cl][Ir]1[O]c2ccccc2-c2sc3ccccc3[n+]21 [8[CO,S], [(η^5-Cp*)IrCl(κ^2-O,N-hpbtz)]] | 0 oC | 2 ± 1 | able to covalently bind DNA | 6.0 ± 0.2
